{"source": "patent US20180312880A1", "about": "“NATURAL BROAD-SPECTRUM BIOCIDES” (CONSEJO SUPERIOR DE INVESTIGACIONES CIENTÍFICAS, priority 2015, published 2018)", "key": {"S. littoralis": {"test_system": "S. littoralis", "assay": "Anti-feeding activity on leaf disks (% FI)", "type": "in vivo, Spodoptera littoralis", "conditions": "compounds at 50 μg/cm^2", "method": "(§1) Breeding and maintenance of the insects was carried out in a temperature-controlled chamber at 24±1° C., 60-70% relative humidity and a photoperiod of 16:8 hours (light:darkness). Larvae of S. littoralis were maintained on a semisynthetic diet (Poitut and Bues. 1970. Ann. Zool. Ecol. Anim. 2, 79-91) and aphids M. persicae and Rhopalosiphum padi on their host plants, pepper—Capsicum annuum L.—and barley—Hordeum vulgare L.—respectively. Tests on anti-feeding activity were carried out with newly hatched larvae of the sixth stage of S. littoralis and wingless adult aphids. The upper surface of leaf disks (1.0 cm^2) of the pepper (Capsicum annuum L.) were treated with 10 μl of a solution (10 mg/ml for extracts and 5 mg/ml for pure products). […] Once consumed 75% of the surface of the control dishes (S. littoralis) or after 24 h (M. persicae or R. padi) the consumption (% FI) or settlement index (% SI), was calculated respectively. % FI=[1−(T/C)×100], where T and C are the consumption of treated leaves discs and control; % SI=[1−(% T/C %)] where % C and % T are the percentage of aphids settled on the discs of control and treated leaves (Burgueño et al. 2008. J. Chem. Ecol. 34, 766-771). […]"}, "M. persicae": {"test_system": "M. persicae", "assay": "Aphid settlement inhibition on leaf disks (% SI)", "type": "in vivo, Myzus persicae", "conditions": "for M. persicae % SI: compounds at 50 μg/cm^2, 24 h; for EC50 (M. persicae): dose-response, settlement inhibition, limits in brackets", "method": "Breeding and maintenance of the insects was carried out in a temperature-controlled chamber at 24±1° C., 60-70% relative humidity and a photoperiod of 16:8 hours (light:darkness). Larvae of S. littoralis were maintained on a semisynthetic diet (Poitut and Bues. 1970. Ann. Zool. Ecol. Anim. 2, 79-91) and aphids M. persicae and Rhopalosiphum padi on their host plants, pepper—Capsicum annuum L.—and barley—Hordeum vulgare L.—respectively. Tests on anti-feeding activity were carried out with newly hatched larvae of the sixth stage of S. littoralis and wingless adult aphids. The upper surface of leaf disks (1.0 cm^2) of the pepper (Capsicum annuum L.) were treated with 10 μl of a solution (10 mg/ml for extracts and 5 mg/ml for pure products). Each test consisted of 5 Petri dishes with two (S. littoralis) larvae per dish or twenty boxes (2×2 cm) with ten M. persicae or R. padi aphids incubated in a growth chamber under the same conditions described for the breeding of the insects. Once consumed 75% of the surface of the control dishes (S. littoralis) or after 24 h (M. persicae or R. padi) the consumption (% FI) or settlement index (% SI), was calculated respectively. % FI=[1−(T/C)×100], where T and C are the consumption of treated leaves discs and control; % SI=[1−(% T/C %)] where % C and % T are the percentage of aphids settled on the discs of control and treated leaves (Burgueño et al. 2008. J. Chem. Ecol. 34, 766-771). Compounds with an FI/SI>70% were tested in a dose-response experiment to calculate its relative potency (EC50, being the effective dose for a reduction of 50% of feeding)."}, "Botrytis cinerea": {"test_system": "Botrytis cinerea", "assay": "Antifungal activity, agar dilution, mycelial growth inhibition", "type": "cell-based", "conditions": "for inhibition at 500 µg/mL: 0.5 mg/ml, 48 h", "method": "(§2) Phytopathogenic fungi Fusarium moniliforme (Sheldon) [CECT 2152] F. oxysporum fs. lycopersici ([…] 2715] and F. solani (Mart) [CECT 2199] come from the Spanish Type Culture Collection (CECT). The strain Botrytis cinerea Pers.:Fr. (B05.10) is a donation from the Biochemistry Department at the University of La Laguna (ULL). For their maintenance the strains were grown on solid commercial medium PDA at 25° C. […] To determine the antifungal activity, the agar dilution method was used (Murabayashi et al. 1991. J. Pesticide Sci. 16, 419-427). […] In parallel, controls were prepared with ethanol at a concentration of 2%. […] Colonies grown in petri dishes and incubated for 48 h were digitized and measured using the ImageJ 1.43 software. The percentage of inhibition (% I) was calculated as: % I=(C-T/C)×100, where C is the diameter of control colonies and T of the colonies of the tested samples. The growth inhibition effective dose (EC50) was determined by linear regression analysis (% of inhibition of dose log)."}, "M. javanica": {"test_system": "M. javanica", "assay": "Nematicidal activity on infective juveniles (J2)", "type": "in vivo, Meloidogyne javanica", "conditions": "J2, 72 h", "method": "The nematode population (M. javanica) was maintained in growth chambers on tomato plants—Lycopersicon esculentum (var Marmande)—at 25° C. and a relative humidity of 70%. The tests were carried out according to the methodology described for M. javanica (Andres et al. 2012. Phytochem. Rev. 11, 371-390) using the biological stage of infective juveniles (J2). […] Each treatment was repeated four times and nematicidal activity was determined from the percentage of infective juveniles dead after 72 h. In cases in which a mortality rate of >99% was determined, dose-response experiments were carried out to determine LC50 and LC90."}, "Lactuca sativa": {"test_system": "Lactuca sativa", "assay": "Phytotoxicity test on seeds (germination, root growth)", "conditions": "for Germination (% C) 72 h / Growth (% C) Root: Lactuca sativa; for Germination (% C) 72 h / Growth (% C) Root / phytotoxic effects on germination and root development: in vivo; for Growth (% C) Root: 6 days", "method": "[…] 500 μl of distilled water and 10/5 seeds, were added to each well, and the plates were incubated in a growth chamber at 25° C., 70% relative humidity and a 16:08 L:D photoperiod. Seeds' germination was recorded for six days and the elongation of roots was assessed at the end of the experiment. The data were analysed by variance analysis (ANOVA)."}, "R. padi": {"test_system": "R. padi", "assay": "Aphid settlement inhibition on leaf disks (% SI)", "type": "in vivo, Rhopalosiphum padi", "conditions": "compounds at 50 μg/cm^2; 24 h", "method": "as §1"}, "F. moniliforme": {"test_system": "F. moniliforme", "assay": "Antifungal activity, agar dilution, mycelial growth inhibition", "type": "cell-based, Fusarium moniliforme", "conditions": "Fusarium verticillioides; tested at 0.1 mg/ml (footnote a); 48 h", "method": "as §2"}, "F. solani": {"test_system": "F. solani", "assay": "Antifungal activity, agar dilution, mycelial growth inhibition", "type": "cell-based", "conditions": "Fusarium solani", "method": "as §2"}}, "note": "Marks after values point to notes of the source that are not given here."}
{"smiles": "CCCCCC1=CC(=O)[C@](O)(CCCC)[C@H](O)C1", "note": "(stereo in doubt) [Stempholone A, 6-butyl-5,6-dihydroxy-3-pentylcyclohex-2-en-1-one]", "values": [{"measurement": "S. littoralis % FI", "setting": "S. littoralis", "result": "41.8 ± 7.9", "unit": "%"}, {"measurement": "M. persicae % SI", "setting": "M. persicae", "result": "81.42 ± 5.61", "unit": "%"}, {"measurement": "EC50 (M. persicae)", "setting": "M. persicae", "result": "0.15 (0.06-0.36)* μg/cm^2"}, {"measurement": "inhibition at 500 µg/mL", "setting": "Botrytis cinerea", "result": "56.2 ± 1.5", "unit": "%"}, {"measurement": "EC50", "setting": "Botrytis cinerea; growth inhibition, linear regression, read-out: EC50 (95% CL) Botrytis cinerea", "result": 430, "unit": "µg/mL"}, {"measurement": "M. javanica % paralysed", "setting": "M. javanica; 0.25 mg/ml", "result": "2.8 ± 0.5", "unit": "%"}, {"measurement": "M. javanica % paralysed", "setting": "M. javanica; 0.5 mg/ml", "result": "83.05 ± 3.15", "unit": "%"}, {"measurement": "Germination (% C) 72 h", "setting": "Lactuca sativa; 5 μg/μl", "result": "97.50 ± 3.54^ % C"}, {"measurement": "Growth (% C) Root", "setting": "Lactuca sativa; 5 μg/μl", "result": "230.26 ± 21.33", "unit": "% C"}, {"measurement": "phytotoxic effects on germination and root development", "setting": "Lactuca sativa", "result": "absence of phytotoxic effects"}]}
{"smiles": "CCCC[C@@]1(O)C(=O)C=C(CCCC(C)O)C[C@H]1O", "note": "(stereo in doubt) [Stempholone B, 6-butyl-5,6-dihydroxy-3-(4-hydroxypentyl)cyclohex-2-en-1-one]", "values": [{"measurement": "S. littoralis % FI", "setting": "S. littoralis", "result": "52.9 ± 5.9", "unit": "%"}, {"measurement": "M. persicae % SI", "setting": "M. persicae", "result": "83.87 ± 6.89", "unit": "%"}, {"measurement": "EC50 (M. persicae)", "setting": "M. persicae", "result": "0.02 (0.003-0.15)* μg/cm^2"}, {"measurement": "R. padi % SI", "setting": "R. padi", "result": "45.13 ± 9.09", "unit": "%"}, {"measurement": "inhibition at 100 µg/mL", "setting": "F. moniliforme", "result": 4.2, "unit": "%"}, {"measurement": "inhibition at 500 µg/mL", "setting": "Botrytis cinerea", "result": "11.9 ± 3.67", "unit": "%"}, {"measurement": "EC50", "setting": "F. solani; growth inhibition, linear regression, read-out: EC50 (95% CL) F. solani", "result": 210, "unit": "µg/mL"}, {"measurement": "inhibition at 100 µg/mL", "setting": "F. solani; tested at 0.1 mg/ml (footnote a), 48 h", "result": 49.9, "unit": "%"}, {"measurement": "M. javanica % paralysed", "setting": "M. javanica; 0.5 mg/ml", "result": "1.24 ± 0.9", "unit": "%"}, {"measurement": "Germination (% C) 72 h", "setting": "Lactuca sativa; 5 μg/μl", "result": "100 ± 0.00", "unit": "% C"}, {"measurement": "Growth (% C) Root", "setting": "Lactuca sativa; 5 μg/μl", "result": "109.26 ± 9.57", "unit": "% C"}, {"measurement": "phytotoxic effects on germination and root development", "setting": "Lactuca sativa", "result": "absence of phytotoxic effects"}]}
{"smiles": "O=C1C=CC(=O)c2c(O)cccc21", "note": "[juglone, reference compound]", "values": [{"measurement": "germination", "setting": "Lactuca sativa; positive control of germination inhibition, 5 μg/μl", "result": "lower than 5%"}]}
